These results are taken from ChEMBL document CHEMBL1151015, “Novel frameworks for trifluoromethyl ketone and phosphonate tsa inhibitors of type II PLA2” (Bioorg Med Chem Lett, 1997).

For series [1], the species on record is Homo sapiens. Briefly: Compound was measured for the inhibitory activity against LTB4 formation in human whole blood at 30 uM concentration. In kind it is functional. The arrangement: scale not given: the % may be the effect or the level left.
The species entered for series [2] is Homo sapiens. Briefly: Compound was measured for the inhibitory activity against LTC4 formation in human monocyte at 30 uM concentration. It is filed as functional. The arrangement: scale not given: the % may be the effect or the level left.
Series [3] can be described thus: Dissociation constant of compound. It is filed as physicochemical.
The species named for series [4] is Homo sapiens. Briefly: Compound was measured for the inhibitory activity against LTC4 formation in human monocyte; not cell permeable. It is filed as functional.
For series [5], the target named is T1, Cytosolic phospholipase A2 (Homo sapiens) (UniProt P47712).
T1 sequence (whole entry): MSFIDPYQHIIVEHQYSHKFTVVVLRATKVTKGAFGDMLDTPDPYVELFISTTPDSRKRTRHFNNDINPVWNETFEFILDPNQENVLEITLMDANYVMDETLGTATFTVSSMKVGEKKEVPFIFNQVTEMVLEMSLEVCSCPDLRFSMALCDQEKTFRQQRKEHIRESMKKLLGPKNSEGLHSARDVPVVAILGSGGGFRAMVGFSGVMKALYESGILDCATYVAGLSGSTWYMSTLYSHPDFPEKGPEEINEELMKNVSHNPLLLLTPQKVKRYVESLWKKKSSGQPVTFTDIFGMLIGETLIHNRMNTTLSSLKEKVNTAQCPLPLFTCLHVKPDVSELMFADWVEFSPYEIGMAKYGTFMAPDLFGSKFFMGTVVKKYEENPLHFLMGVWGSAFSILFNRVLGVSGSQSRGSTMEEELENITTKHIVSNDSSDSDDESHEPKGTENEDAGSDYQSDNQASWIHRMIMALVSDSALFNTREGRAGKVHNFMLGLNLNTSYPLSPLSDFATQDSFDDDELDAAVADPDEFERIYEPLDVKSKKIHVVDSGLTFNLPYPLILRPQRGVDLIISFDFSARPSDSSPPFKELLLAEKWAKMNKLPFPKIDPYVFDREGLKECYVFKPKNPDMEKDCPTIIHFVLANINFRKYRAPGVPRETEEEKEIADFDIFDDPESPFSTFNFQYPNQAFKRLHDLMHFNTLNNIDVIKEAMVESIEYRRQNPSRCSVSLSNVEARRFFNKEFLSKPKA
Briefly: Compound was measured for the inhibitory activity against Cytosolic phospholipase A 2 (c-PLA2) at 30 uM concentration. The arrangement: scale not given: the % may be the effect or the level left.

The nature of series [6]: pH dependence of compound; weak. In kind it is ADME.
For series [7], the species on record is Homo sapiens. Briefly: Compound was measured for the inhibitory activity against LTC4 formation in human monocyte; not determined; not cell permeable. In kind it is functional.
The target of series [8] is T1, Cytosolic phospholipase A2 (Homo sapiens). Briefly: Compound was measured for the inhibitory activity against Cytosolic phospholipase A2 (c-PLA2) at 100 uM concentration. The arrangement: scale not given: the % may be the effect or the level left.

For orientation: pKa means the negative logarithm of the acid dissociation constant. As to `CCCCCCCCCCOP(=O)(O)c1cc(OCc2ccccc2)ccc1/C=C/C(=O)O`, the Activity in the series listed under Homo sapiens [1] was -90%; in the series filed under Homo sapiens [2], -44%. The compound further yielded a pKa in series [3] of 7.1.

For the compound `CCCCCCCOc1ccc(C(=O)O)cc1CC(=O)C(F)(F)F`, the Activity result was “not cell permeable” in the series listed under Homo sapiens [4] and -40% in series [5]. In series [3], this compound showed a pKa of 7.1.

Consider `CCCCCCCCCCCCCCCCCCOP(=O)(O)c1cccc2ccc(C(=O)O)cc12`, for which, in series [6], the pH dependence result is on record as “weak”. Further, in the series listed under Homo sapiens [7], the Activity entry was “not cell permeable”.

Consider `O=C(O)c1ccc2cccc(C(=O)C(F)(F)F)c2c1`, for which the Activity is -36% in series [8] and -76% in the series listed under Homo sapiens [2].
